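Cells were grown in 96-well plates and exposed to each compound for 48 hours at five concentrations; endpoints were interpolated linearly between bracketing concentrations, or set to the highest concentration if not reached. Definition used: TGI = concentration required for complete inhibition of growth.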
Key:
Assay in all cases: inhibition of tumour cell growth, NCI panel, 48 h
KM12 colon = system: KM12 colon
NCI-H226 lung = system: NCI-H226 lung
CCRF-CEM leukemia = system: CCRF-CEM leukemia
HOP-18 NSCLC = system: HOP-18 NSCLC
OVCAR-3 ovarian = system: OVCAR-3 ovarian
SW-620 colon = system: SW-620 colon
A549 NSCLC = system: A549 NSCLC
SF-295 CNS = system: SF-295 CNS
DMS 114 small cell lung = system: DMS 114 small cell lung
UACC-257 melanoma = system: UACC-257 melanoma
ACHN renal = system: ACHN renal
SNB-78 CNS = system: SNB-78 CNS
SK-MEL-28 melanoma = system: SK-MEL-28 melanoma
OVCAR-5 ovarian = system: OVCAR-5 ovarian
NCI-H460 lung = system: NCI-H460 lung
LOX IMVI melanoma = system: LOX IMVI melanoma
CAKI-1 renal = system: CAKI-1 renal
RXF-631 renal = system: RXF-631 renal
SK-MEL-2 melanoma = system: SK-MEL-2 melanoma
HCT-116 colon = system: HCT-116 colon
M14 melanoma = system: M14 melanoma
SNB-19 CNS = system: SNB-19 CNS
DLD-1 colon = system: DLD-1 colon
HL-60(TB) leukemia = system: HL-60(TB) leukemia
EKVX NSCLC = system: EKVX NSCLC
IGROV1 ovarian = system: IGROV1 ovarian
UACC-62 melanoma = system: UACC-62 melanoma
DMS 273 small cell lung = system: DMS 273 small cell lung
M19-MEL melanoma = system: M19-MEL melanoma
OVCAR-4 ovarian = system: OVCAR-4 ovarian
KM20L2 colon = system: KM20L2 colon
RXF 393 renal = system: RXF 393 renal
SF-268 CNS = system: SF-268 CNS
786-0 renal = system: 786-0 renal
HOP-92 NSCLC = system: HOP-92 NSCLC
HCC-2998 colon = system: HCC-2998 colon
NCI-H23 lung = system: NCI-H23 lung
HT29 colon = system: HT29 colon
A498 renal = system: A498 renal
XF 498 CNS = system: XF 498 CNS
SN12C renal = system: SN12C renal
LXFL 529 NSCLC = system: LXFL 529 NSCLC
K-562 leukemia = system: K-562 leukemia
SNB-75 CNS = system: SNB-75 CNS
TK-10 renal = system: TK-10 renal
SR leukemia = system: SR leukemia
OVCAR-8 ovarian = system: OVCAR-8 ovarian
SK-MEL-5 melanoma = system: SK-MEL-5 melanoma
UO-31 renal = system: UO-31 renal
RPMI-8226 leukemia = system: RPMI-8226 leukemia
HCT-15 colon = system: HCT-15 colon
MALME-3M melanoma = system: MALME-3M melanoma
HOP-62 NSCLC = system: HOP-62 NSCLC
SF-539 CNS = system: SF-539 CNS
MOLT-4 leukemia = system: MOLT-4 leukemia
COLO 205 colon = system: COLO 205 colon
NCI-H522 lung = system: NCI-H522 lung
U251 CNS = system: U251 CNS
SK-OV-3 ovarian = system: SK-OV-3 ovarian

## CCOc1ccc(/C=N\N2C(=O)c3ccccc3C2=O)cc1
KM12 colon
  TGI: > 100 µM
NCI-H226 lung
  TGI: > 100 µM
CCRF-CEM leukemia
  TGI: > 100 µM
HOP-18 NSCLC
  TGI: > 100 µM
OVCAR-3 ovarian
  TGI: > 100 µM
SW-620 colon
  TGI: > 100 µM
A549 NSCLC
  TGI: > 100 µM
SF-295 CNS
  TGI: > 100 µM
DMS 114 small cell lung
  TGI: > 100 µM
UACC-257 melanoma
  TGI: > 100 µM
ACHN renal
  TGI: > 100 µM
SNB-78 CNS
  TGI: > 100 µM
SK-MEL-28 melanoma
  TGI: > 100 µM
OVCAR-5 ovarian
  TGI: > 100 µM
NCI-H460 lung
  TGI: > 100 µM
LOX IMVI melanoma
  TGI: > 100 µM
CAKI-1 renal
  TGI: > 100 µM
RXF-631 renal
  TGI: > 100 µM
SK-MEL-2 melanoma
  TGI: > 100 µM
HCT-116 colon
  TGI: > 100 µM
M14 melanoma
  TGI: > 100 µM
SNB-19 CNS
  TGI: > 100 µM
DLD-1 colon
  TGI: > 100 µM
HL-60(TB) leukemia
  TGI: > 100 µM
EKVX NSCLC
  TGI: > 100 µM
IGROV1 ovarian
  TGI: > 100 µM
UACC-62 melanoma
  TGI: > 100 µM
DMS 273 small cell lung
  TGI: > 100 µM
M19-MEL melanoma
  TGI: > 100 µM
OVCAR-4 ovarian
  TGI: > 100 µM
KM20L2 colon
  TGI: > 100 µM
RXF 393 renal
  TGI: > 100 µM
SF-268 CNS
  TGI: > 100 µM
786-0 renal
  TGI: > 100 µM
HOP-92 NSCLC
  TGI: > 100 µM
HCC-2998 colon
  TGI: > 100 µM
NCI-H23 lung
  TGI: > 100 µM
HT29 colon
  TGI: > 100 µM
A498 renal
  TGI: > 100 µM
XF 498 CNS
  TGI: > 100 µM
SN12C renal
  TGI: > 100 µM
LXFL 529 NSCLC
  TGI: > 100 µM
K-562 leukemia
  TGI: > 100 µM
SNB-75 CNS
  TGI: > 100 µM
TK-10 renal
  TGI: > 100 µM
SR leukemia
  TGI: > 100 µM
OVCAR-8 ovarian
  TGI: > 100 µM
SK-MEL-5 melanoma
  TGI: > 100 µM
UO-31 renal
  TGI: > 100 µM
RPMI-8226 leukemia
  TGI: > 100 µM
HCT-15 colon
  TGI: > 100 µM
MALME-3M melanoma
  TGI: > 100 µM
HOP-62 NSCLC
  TGI: > 100 µM
SF-539 CNS
  TGI: > 100 µM
MOLT-4 leukemia
  TGI: > 100 µM

## CN(C)CCCNC(=O)c1cccc2nc3ccccc3nc12
KM12 colon
  TGI: 49.9 µM
NCI-H226 lung
  TGI: 39.1 µM
HOP-18 NSCLC
  TGI: > 86.9 µM
OVCAR-3 ovarian
  TGI: > 59.5 µM
COLO 205 colon
  TGI: > 48.3 µM
SW-620 colon
  TGI: > 54.9 µM
A549 NSCLC
  TGI: > 78.7 µM
SF-295 CNS
  TGI: > 55.4 µM
DMS 114 small cell lung
  TGI: 30 µM
UACC-257 melanoma
  TGI: 19.5 µM
ACHN renal
  TGI: > 100 µM
SNB-78 CNS
  TGI: > 71.6 µM
SK-MEL-28 melanoma
  TGI: 38.5 µM
OVCAR-5 ovarian
  TGI: 54.3 µM
LOX IMVI melanoma
  TGI: 39.8 µM
CAKI-1 renal
  TGI: > 78.2 µM
RXF-631 renal
  TGI: > 100 µM
SK-MEL-2 melanoma
  TGI: 29 µM
HCT-116 colon
  TGI: 34.7 µM
M14 melanoma
  TGI: > 53.3 µM
SNB-19 CNS
  TGI: > 100 µM
DLD-1 colon
  TGI: > 100 µM
EKVX NSCLC
  TGI: > 77.4 µM
IGROV1 ovarian
  TGI: > 82.2 µM
UACC-62 melanoma
  TGI: > 57.8 µM
DMS 273 small cell lung
  TGI: > 100 µM
NCI-H522 lung
  TGI: > 100 µM
U251 CNS
  TGI: > 73.4 µM
M19-MEL melanoma
  TGI: 16.4 µM
OVCAR-4 ovarian
  TGI: 47.2 µM
KM20L2 colon
  TGI: > 100 µM
RXF 393 renal
  TGI: 34.6 µM
SK-OV-3 ovarian
  TGI: > 100 µM
SF-268 CNS
  TGI: 39.9 µM
786-0 renal
  TGI: > 100 µM
HOP-92 NSCLC
  TGI: > 78.4 µM
HCC-2998 colon
  TGI: 50.4 µM
NCI-H23 lung
  TGI: 33.5 µM
HT29 colon
  TGI: 36.5 µM
A498 renal
  TGI: 39.6 µM
XF 498 CNS
  TGI: 2.1 µM
SN12C renal
  TGI: > 100 µM
LXFL 529 NSCLC
  TGI: > 95.2 µM
K-562 leukemia
  TGI: 60.4 µM
SNB-75 CNS
  TGI: > 100 µM
TK-10 renal
  TGI: > 100 µM
SR leukemia
  TGI: > 100 µM
OVCAR-8 ovarian
  TGI: > 82.2 µM
SK-MEL-5 melanoma
  TGI: > 100 µM
UO-31 renal
  TGI: > 71 µM
RPMI-8226 leukemia
  TGI: > 100 µM
HCT-15 colon
  TGI: > 82.4 µM
MALME-3M melanoma
  TGI: 19.3 µM
HOP-62 NSCLC
  TGI: 45.5 µM
SF-539 CNS
  TGI: 54.2 µM
MOLT-4 leukemia
  TGI: > 100 µM
